Reference: BindingDB's records for doi:10.1016/j.bmcl.2017.11.009 (De Montfort University, 2017)

Assay: Inhibition of recombinant human CYP1B1 expressed in HEK293 cells assessed as potentiation of cisplatin-induced cytotoxicity by measuring cisplatin EC50 by MTT assay (Rvb = 65.01 +/- 7.01 uM)

Row | SMILES | EC50 [µM]
1 | COc1ccccc1/C=C/C(=O)c1ccncc1 | 10
2 | COc1cccc(/C=C/C(=O)c2ccncc2)c1 | 10
3 | COc1ccc(/C=C/C(=O)c2ccncc2)c(OC)c1OC | 10
4 | COc1cc(/C=C/C(=O)c2ccncc2)cc(OC)c1 | 10

Assay: Inhibition of recombinant human CYP1A1 expressed in HEK293 cells assessed as reduction in benzo(a)pyrene-induced toxicity by measuring B[a]P EC50 at 2 times IC50 by MTT assay (Rvb = 0.8 +/- 0.14 uM)

Row | SMILES | EC50 [µM]
5 | CCOc1cc(/C=C/C(=O)c2ccncc2)cc(OCC)c1OCC | 14
6 | CCOc1cc(/C=C/C(=O)c2ccncc2)cc(OC)c1OC | 14
7 | COc1cc(/C=C/C(=O)c2ccncc2)cc(OC)c1OC | 14
8 | CCOc1cc(/C=C/C(=O)c2ccncc2)cc(OC)c1OCC | 14
